According to paper PMC4767141, “Discovery of Potent, Orally Bioavailable, Small-Molecule Inhibitors of WNT Signaling from a Cell-Based Pathway Screen” (Journal of Medicinal Chemistry, 2015):
pIC50: −log10 of the molar value.

Key:
MKK6 = molecular target: T1, MKK6 (Homo sapiens, UniProt P52564); assay: Millipore kinase panel; type: biochemical; conditions: read-out: % Control
T1 construct: purchased Millipore KinaseProfiler (kinases); Cerep (receptors and ion channels)

TP (h) (TXA2/PGH2) = molecular target: T2, TP (h) (TXA2/PGH2) (Homo sapiens, UniProt P21731); assay: CEREP binding panel; conditions: antagonist radioligand, read-out: % Inhibition of Control Specific Binding
T2 construct: purchased Millipore KinaseProfiler (kinases); Cerep (receptors and ion channels)

GSK3ALPHA = molecular target: T3, GSK3ALPHA (Homo sapiens, UniProt P49840); assay: Millipore kinase panel; type: biochemical; conditions: read-out: % Control
T3 construct: purchased Millipore

Cl- channel (GABA-gated) = assay: CEREP binding panel; conditions: 10 μM, antagonist radioligand
ABL(Y253F) = molecular target: T4, ABL(Y253F) (Homo sapiens, UniProt P00519, Y253F); assay: Millipore kinase panel; type: biochemical; conditions: read-out: % Control
T4 construct: purchased Millipore KinaseProfiler (kinases); Cerep (receptors and ion channels)

PI3 KINASE (P110D/P85A) = assay: Millipore kinase panel; type: biochemical; conditions: 1 μM, ATP at Km
Description: (§1) Supplementary Table S3. Activity of compound 44 tested 1 μM across a panel of 209 non-mutated kinases (Millipore Panel: data expressed as percentage control response versus each kinase tested at its respective Km for ATP). No inhibition was considered sufficient to warrant follow-up with IC50 determination.
(§2) % Inhibition of % Inhibition of […]
(§3) α1 (non-selective) (antagonist radioligand) 8 NTS1 (NT1) (h) (agonist radioligand) -8 α2 (non-selective) (antagonist radioligand) 0 δ2 (DOP) (h) (agonist radioligand) 22 β1 (h) (agonist radioligand) 5 κ (KOP) (agonist radioligand) 72 […]
(§4) AT1 (h) (antagonist radioligand) 8 NOP (ORL1) (h) (agonist radioligand) 3 BZD (central) (agonist radioligand) 18 TP (h) (TXA2/PGH2) (antagonist radioligand) NT B2 (h) (agonist radioligand) 0 5-HT1A (h) (agonist radioligand) 19 […]
(§5) CCK1 (CCKA) (h) (agonist radioligand) 2 5-HT2A (h) (antagonist radioligand) 1 D1 (h) (antagonist radioligand) 7 5-HT2B (h) (agonist radioligand) 6
(§6) D2S (h) (antagonist radioligand) 5 5-HT3 (h) (antagonist radioligand) 9 ETA (h) (agonist radioligand) -9 5-HT5a (h) (agonist radioligand) 1
(§7) GABA (non-selective) (agonist radioligand) 5 5-HT6 (h) (agonist radioligand) 3 GAL2 (h) (agonist radioligand) 2 5-HT7 (h) (agonist radioligand) 1
(§8) CXCR2 (IL-8B) (h) (agonist radioligand) -6 sst (non-selective) (agonist radioligand) 4 CCR1 (h) (agonist radioligand) -4 VPAC1 (VIP1) (h) (agonist radioligand) 0 H1 (h) (antagonist radioligand) 16 V1a (h) (agonist radioligand) -7
(§9) H2 (h) (antagonist radioligand) -2 Ca2+ channel (L, verapamil site) (phenylalkylamine) (antagonist radioligand) 7 MC4 (h) (agonist radioligand) 4 KV channel (antagonist radioligand) -13 MT1 (ML1A) (h) (agonist radioligand) 34 SKCa channel (antagonist radioligand) 3 M1 (h) (antagonist radioligand) 21 Na+ channel (site 2) (antagonist radioligand) 29 M2 (h) (antagonist radioligand) 38 Cl- channel (GABA-gated) (antagonist radioligand) 31 M3 (h) (antagonist radioligand) 46 norepinephrine transporter (h) (antagonist radioligand) 14 NK2 (h) (agonist radioligand) -17 dopamine transporter (h) (antagonist radioligand) 40 5-HT transporter (h) (antagonist radioligand) 70 […]
(§10) receptors, ion channels and enzymes (CEREP). Results are expressed as percent inhibition of control specific binding. […]
(§11) kinases (Millipore Panel: data expressed as percentage control response versus each kinase tested […]
(§12) at its respective Km for ATP).
(§13) Supplementary Figure S1. Dose-dependent reduction of endogenous cMYC mRNA measured by RT-PCR (n = 8) after treatment of 7dF3 cells with 74 at the stated concentration for 2 h […]

PI3 KINASE (P85A) = assay: Millipore kinase panel; type: biochemical; conditions: 1 μM, ATP at Km
Description: as §1, §2, §3, §4, §5, §6, §7, §8, §9, §10, §11, §12, §13

CK1(Y) = assay: Millipore kinase panel; type: biochemical; conditions: 1 μM, ATP at Km
Description: as §1, §2, §3, §4, §5, §6, §7, §8, §9, §10, §11, §12, §13

PI3 KINASE (P110B/P85A) = assay: Millipore kinase panel; type: biochemical; conditions: 1 μM, ATP at Km
Description: as §1, §2, §3, §4, §5, §6, §7, §8, §9, §10, §11, §12, §13

[1] = test system: PI3 KINASE (P110A(E542K)/P85A); assay: Millipore kinase panel; type: biochemical; conditions: 1 μM, ATP at Km
Description: as §1, §2, §3, §4, §5, §6, §7, §8, §9, §10, §11, §12, §13

PI3 KINASE (P65A) = assay: Millipore kinase panel; type: biochemical; conditions: 1 μM, ATP at Km
Description: as §1, §2, §3, §4, §5, §6, §7, §8, §9, §10, §11, §12, §13

PKCBETAI = molecular target: T5, PKCBETAI (Homo sapiens, UniProt P05771); assay: Millipore kinase panel; type: biochemical; conditions: read-out: % Control
T5 construct: purchased Millipore KinaseProfiler (kinases); Cerep (receptors and ion channels)

CKIT(V560G) = molecular target: T6, CKIT(V560G) (Homo sapiens, UniProt P10721, V560G); assay: Millipore kinase panel; type: biochemical; conditions: read-out: % Control
T6 construct: purchased Millipore KinaseProfiler (kinases); Cerep (receptors and ion channels)

PI3K BETA = molecular target: T7, PI3K BETA (Homo sapiens, UniProt P42338); assay: Millipore kinase panel; type: biochemical; conditions: read-out: % Control
T7 construct: purchased Millipore KinaseProfiler (kinases); Cerep (receptors and ion channels)

ABL(T315I) = molecular target: T8, ABL(T315I) (Homo sapiens, UniProt P00519, T315I); assay: Millipore kinase panel; type: biochemical; conditions: read-out: % Control
T8 construct: purchased Millipore KinaseProfiler (kinases); Cerep (receptors and ion channels)

FLT3(D835Y) = molecular target: T9, FLT3(D835Y) (Homo sapiens, UniProt P36888, D835Y); assay: Millipore kinase panel; type: biochemical; conditions: read-out: % Control
T9 construct: purchased Millipore KinaseProfiler (kinases); Cerep (receptors and ion channels)

PDGFRALPHA(D842V) = molecular target: T10, PDGFRALPHA(D842V) (Homo sapiens, UniProt P16234, D842V); assay: Millipore kinase panel; type: biochemical; conditions: read-out: % Control
T10 construct: purchased Millipore KinaseProfiler (kinases); Cerep (receptors and ion channels)

PI3 KINASE (H1047R/P85A) = molecular target: T11, PI3 KINASE (H1047R/P85A) (Homo sapiens, UniProt P42336, H1047R); assay: Millipore kinase panel; type: biochemical; conditions: read-out: % Control
T11 construct: purchased Millipore KinaseProfiler (kinases); Cerep (receptors and ion channels)

PEK = molecular target: T12, PEK (Homo sapiens, UniProt Q9NZJ5); assay: Millipore kinase panel; type: biochemical; conditions: read-out: % Control
T12 construct: purchased Millipore KinaseProfiler (kinases); Cerep (receptors and ion channels)

PI3K GAMMA = molecular target: T13, PI3K GAMMA (Homo sapiens, UniProt P48736); assay: Millipore kinase panel; type: biochemical; conditions: read-out: % Control
T13 construct: purchased Millipore KinaseProfiler (kinases); Cerep (receptors and ion channels)

EGFR(L858R) = molecular target: T14, EGFR(L858R) (Homo sapiens, UniProt P00533, L858R); assay: Millipore kinase panel; type: biochemical; conditions: read-out: % Control
T14 construct: purchased Millipore KinaseProfiler (kinases); Cerep (receptors and ion channels)

SRC(1-530) = molecular target: T15, SRC(1-530) (Homo sapiens, UniProt P12931); assay: Millipore kinase panel; type: biochemical; conditions: read-out: % Control
T15 construct: purchased Millipore KinaseProfiler (kinases); Cerep (receptors and ion channels)

CKIT(D816V) = molecular target: T16, CKIT(D816V) (Homo sapiens, UniProt P10721, D816V); assay: Millipore kinase panel; type: biochemical; conditions: read-out: % Control
T16 construct: purchased Millipore KinaseProfiler (kinases); Cerep (receptors and ion channels)

CAMKIDELTA = molecular target: T17, CAMKIDELTA (Homo sapiens, UniProt Q8IU85); assay: Millipore kinase panel; type: biochemical; conditions: read-out: % Control
T17 construct: purchased Millipore KinaseProfiler (kinases); Cerep (receptors and ion channels)

CYP450 2C19 = CYP450 2C19 (Homo sapiens, UniProt P33261); assay: CYP450 inhibition; type: in vitro ADME
CYP450 2C19, sequence (P33261 whole entry): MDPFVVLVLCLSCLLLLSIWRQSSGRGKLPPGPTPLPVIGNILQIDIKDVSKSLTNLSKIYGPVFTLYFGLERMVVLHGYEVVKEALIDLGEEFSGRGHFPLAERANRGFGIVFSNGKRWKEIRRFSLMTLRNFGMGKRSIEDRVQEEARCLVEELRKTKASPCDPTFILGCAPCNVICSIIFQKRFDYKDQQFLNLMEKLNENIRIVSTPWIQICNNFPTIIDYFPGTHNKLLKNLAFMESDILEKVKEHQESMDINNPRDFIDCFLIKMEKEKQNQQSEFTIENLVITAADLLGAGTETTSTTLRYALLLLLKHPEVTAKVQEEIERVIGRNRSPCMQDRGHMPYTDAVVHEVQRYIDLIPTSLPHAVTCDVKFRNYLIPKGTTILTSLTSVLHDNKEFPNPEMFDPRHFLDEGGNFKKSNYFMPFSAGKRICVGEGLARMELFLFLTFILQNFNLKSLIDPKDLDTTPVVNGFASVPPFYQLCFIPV

T1 sequence (P52564 whole entry): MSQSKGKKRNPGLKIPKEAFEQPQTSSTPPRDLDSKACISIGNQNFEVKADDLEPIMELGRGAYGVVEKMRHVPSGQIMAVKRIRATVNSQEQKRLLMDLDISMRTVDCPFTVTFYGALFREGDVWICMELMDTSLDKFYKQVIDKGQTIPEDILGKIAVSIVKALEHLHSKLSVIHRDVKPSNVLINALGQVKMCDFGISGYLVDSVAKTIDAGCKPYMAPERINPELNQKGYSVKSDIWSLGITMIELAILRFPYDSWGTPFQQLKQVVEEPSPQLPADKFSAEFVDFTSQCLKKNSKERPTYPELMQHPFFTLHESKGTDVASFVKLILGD
T17 sequence (Q8IU85 whole entry): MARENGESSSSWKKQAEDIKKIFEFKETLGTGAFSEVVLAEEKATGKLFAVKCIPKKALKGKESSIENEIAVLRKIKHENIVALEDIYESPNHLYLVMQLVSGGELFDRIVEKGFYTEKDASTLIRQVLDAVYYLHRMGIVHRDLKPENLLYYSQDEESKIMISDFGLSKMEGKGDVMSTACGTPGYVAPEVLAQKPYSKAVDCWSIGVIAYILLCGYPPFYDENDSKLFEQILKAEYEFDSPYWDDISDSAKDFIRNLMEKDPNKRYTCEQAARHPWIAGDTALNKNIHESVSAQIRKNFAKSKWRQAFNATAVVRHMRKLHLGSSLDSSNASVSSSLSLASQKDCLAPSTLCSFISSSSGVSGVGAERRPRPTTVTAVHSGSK
T7 sequence (P42338 whole entry): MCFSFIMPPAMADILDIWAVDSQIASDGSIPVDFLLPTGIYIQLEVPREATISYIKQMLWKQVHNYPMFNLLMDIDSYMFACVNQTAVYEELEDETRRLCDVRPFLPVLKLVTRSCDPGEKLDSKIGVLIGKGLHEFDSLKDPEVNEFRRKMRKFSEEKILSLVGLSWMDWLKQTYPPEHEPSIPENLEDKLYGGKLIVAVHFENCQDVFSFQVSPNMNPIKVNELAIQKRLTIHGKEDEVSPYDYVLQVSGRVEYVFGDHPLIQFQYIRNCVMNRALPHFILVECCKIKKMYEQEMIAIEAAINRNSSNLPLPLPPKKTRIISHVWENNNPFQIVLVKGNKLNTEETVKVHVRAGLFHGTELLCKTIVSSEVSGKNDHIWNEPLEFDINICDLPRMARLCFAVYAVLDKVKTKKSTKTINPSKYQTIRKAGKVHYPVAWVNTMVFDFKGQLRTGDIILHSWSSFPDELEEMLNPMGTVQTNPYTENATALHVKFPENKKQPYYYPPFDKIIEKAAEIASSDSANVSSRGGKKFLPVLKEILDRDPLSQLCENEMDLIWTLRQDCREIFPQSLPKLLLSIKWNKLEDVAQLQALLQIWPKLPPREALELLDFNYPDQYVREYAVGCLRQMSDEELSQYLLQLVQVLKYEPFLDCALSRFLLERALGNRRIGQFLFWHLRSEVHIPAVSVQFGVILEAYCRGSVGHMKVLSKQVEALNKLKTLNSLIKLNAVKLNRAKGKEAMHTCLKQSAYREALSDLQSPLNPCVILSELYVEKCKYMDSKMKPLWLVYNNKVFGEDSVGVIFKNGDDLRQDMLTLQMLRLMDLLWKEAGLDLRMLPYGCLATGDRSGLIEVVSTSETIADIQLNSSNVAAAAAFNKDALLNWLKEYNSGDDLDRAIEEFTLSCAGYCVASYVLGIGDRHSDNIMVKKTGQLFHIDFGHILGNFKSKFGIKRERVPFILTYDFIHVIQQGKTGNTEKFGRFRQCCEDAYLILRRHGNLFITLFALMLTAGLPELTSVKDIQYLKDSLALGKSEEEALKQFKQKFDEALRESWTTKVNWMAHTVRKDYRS
T7 sequence (P27986 whole entry partner): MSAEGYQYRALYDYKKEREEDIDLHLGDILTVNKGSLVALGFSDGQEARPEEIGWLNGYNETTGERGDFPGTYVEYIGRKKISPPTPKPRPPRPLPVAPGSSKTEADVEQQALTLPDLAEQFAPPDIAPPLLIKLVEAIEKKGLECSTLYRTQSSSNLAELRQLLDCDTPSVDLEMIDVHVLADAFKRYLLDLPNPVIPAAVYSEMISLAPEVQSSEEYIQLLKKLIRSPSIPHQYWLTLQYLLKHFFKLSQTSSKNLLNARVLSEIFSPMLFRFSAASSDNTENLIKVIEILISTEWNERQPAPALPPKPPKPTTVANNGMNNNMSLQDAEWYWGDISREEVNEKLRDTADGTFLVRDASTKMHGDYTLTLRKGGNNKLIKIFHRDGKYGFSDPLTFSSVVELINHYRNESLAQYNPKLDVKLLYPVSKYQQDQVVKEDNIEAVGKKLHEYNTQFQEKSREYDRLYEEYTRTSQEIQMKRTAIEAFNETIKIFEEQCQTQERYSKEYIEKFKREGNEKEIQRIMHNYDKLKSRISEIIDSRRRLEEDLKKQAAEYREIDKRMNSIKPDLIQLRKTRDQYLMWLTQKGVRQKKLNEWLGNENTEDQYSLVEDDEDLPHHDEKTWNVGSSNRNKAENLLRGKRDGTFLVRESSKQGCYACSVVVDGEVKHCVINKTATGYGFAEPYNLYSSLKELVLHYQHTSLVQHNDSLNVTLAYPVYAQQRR
T5 sequence (P05771 whole entry): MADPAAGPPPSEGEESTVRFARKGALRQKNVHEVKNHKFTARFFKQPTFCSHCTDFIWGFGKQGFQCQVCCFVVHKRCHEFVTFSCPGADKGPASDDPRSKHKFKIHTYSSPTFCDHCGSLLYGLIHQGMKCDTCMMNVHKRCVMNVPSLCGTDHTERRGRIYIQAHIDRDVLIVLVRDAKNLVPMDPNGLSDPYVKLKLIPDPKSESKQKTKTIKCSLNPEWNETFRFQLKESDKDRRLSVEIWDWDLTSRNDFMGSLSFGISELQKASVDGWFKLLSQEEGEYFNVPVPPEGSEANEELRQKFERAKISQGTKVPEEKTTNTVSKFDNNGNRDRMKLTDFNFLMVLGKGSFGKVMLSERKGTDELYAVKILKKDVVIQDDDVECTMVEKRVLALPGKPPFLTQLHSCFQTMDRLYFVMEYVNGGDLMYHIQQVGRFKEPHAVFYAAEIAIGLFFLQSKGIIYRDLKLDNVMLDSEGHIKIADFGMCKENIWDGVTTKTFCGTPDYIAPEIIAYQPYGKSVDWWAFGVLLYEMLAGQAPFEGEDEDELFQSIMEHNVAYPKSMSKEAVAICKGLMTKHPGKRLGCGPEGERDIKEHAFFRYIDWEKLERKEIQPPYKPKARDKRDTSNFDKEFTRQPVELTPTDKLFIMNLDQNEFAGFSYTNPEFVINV
T13 sequence (P48736 whole entry): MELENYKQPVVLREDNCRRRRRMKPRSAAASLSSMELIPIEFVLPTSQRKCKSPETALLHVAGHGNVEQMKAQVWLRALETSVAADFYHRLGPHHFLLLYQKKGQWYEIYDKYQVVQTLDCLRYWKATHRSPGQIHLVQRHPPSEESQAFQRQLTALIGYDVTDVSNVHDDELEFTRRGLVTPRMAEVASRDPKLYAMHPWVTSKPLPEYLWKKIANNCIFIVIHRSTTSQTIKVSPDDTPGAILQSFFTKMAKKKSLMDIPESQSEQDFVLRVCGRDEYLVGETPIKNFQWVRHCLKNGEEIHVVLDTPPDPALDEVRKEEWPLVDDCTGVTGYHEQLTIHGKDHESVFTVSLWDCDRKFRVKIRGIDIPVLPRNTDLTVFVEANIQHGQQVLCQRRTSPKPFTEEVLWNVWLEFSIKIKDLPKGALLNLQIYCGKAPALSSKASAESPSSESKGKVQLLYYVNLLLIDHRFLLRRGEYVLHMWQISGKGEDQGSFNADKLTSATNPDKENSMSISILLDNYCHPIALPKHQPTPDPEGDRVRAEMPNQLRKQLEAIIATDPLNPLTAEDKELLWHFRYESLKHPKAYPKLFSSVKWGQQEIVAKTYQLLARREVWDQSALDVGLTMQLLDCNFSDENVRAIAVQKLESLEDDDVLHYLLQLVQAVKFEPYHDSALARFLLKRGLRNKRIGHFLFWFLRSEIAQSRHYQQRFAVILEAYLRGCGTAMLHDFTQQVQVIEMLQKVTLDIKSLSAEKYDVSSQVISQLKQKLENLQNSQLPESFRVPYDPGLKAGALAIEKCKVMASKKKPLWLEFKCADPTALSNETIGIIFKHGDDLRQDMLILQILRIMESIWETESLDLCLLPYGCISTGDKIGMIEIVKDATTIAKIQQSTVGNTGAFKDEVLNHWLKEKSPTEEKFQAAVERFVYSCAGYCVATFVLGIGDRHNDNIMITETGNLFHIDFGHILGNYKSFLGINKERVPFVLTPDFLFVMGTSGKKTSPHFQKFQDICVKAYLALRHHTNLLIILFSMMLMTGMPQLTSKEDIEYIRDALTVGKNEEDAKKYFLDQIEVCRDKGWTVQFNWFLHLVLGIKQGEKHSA

With `O=C1NCCC12CCN(c1c(Cl)cncc1-c1ccc(N3CCOCC3)cc1)CC2` [Compound 44, 8-(3-Chloro-5-(4-morpholin-4-ylphenyl)pyridin-4-yl)-2,8-diazaspiro[4.5]decan-1-one] the remaining activity at 1 µM (MKK6) was 48%, the inhibition at 10 µM (TP (h) (TXA2/PGH2)) was 14% and the remaining activity at 1 µM (GSK3ALPHA) was -39%. For the same compound, the “% Inhibition of Control Specific Binding” value (Cl- channel (GABA-gated)) was 14%.

For `Cn1cc(-c2ccc(-c3cncc(Cl)c3N3CCC4(CCNC4=O)CC3)cc2)cn1` [Compound 74, 8-(3-Chloro-5-(4-(1-methyl-1H-pyrazol-4-yl)phenyl)pyridin-4-yl)-2,8-diazaspiro[4.5]decan-1-one], the remaining activity at 1 µM (ABL(Y253F)) was -11%, the “% Control” value (PI3 KINASE (P110D/P85A)) was 0% and the “% Control” value (PI3 KINASE (P85A)) was -1%. The “% Control” value (CK1(Y)) was -4%, the “% Control” value (PI3 KINASE (P110B/P85A)) was -1% and the “% Control” value [1] was 0%. The “% Control” value (PI3 KINASE (P65A)) was 0%, the remaining activity at 1 µM (PKCBETAI) was -23% and the remaining activity at 1 µM (CKIT(V560G)) was -5%. The remaining activity at 1 µM (PI3K BETA) was 0%, the remaining activity at 1 µM (ABL(T315I)) was 7% and the remaining activity at 1 µM (FLT3(D835Y)) was -11%. The remaining activity at 1 µM (PDGFRALPHA(D842V)) was -4%, the remaining activity at 1 µM (PI3 KINASE (H1047R/P85A)) was -1% and the remaining activity at 1 µM (PEK) was 8%. For the same compound, the remaining activity at 1 µM (PI3K GAMMA) was 2%, the remaining activity at 1 µM (EGFR(L858R)) was 1% and the remaining activity at 1 µM (SRC(1-530)) was -8%. It also gave a remaining activity at 1 µM (CKIT(D816V)) of 7%, a remaining activity at 1 µM (CAMKIDELTA) of -4% and a pIC50 (CYP450 2C19) of 5.10.
